Here are results for 1 molecule from patent US8536214B2, “Indane derivatives as AMPA receptor modulators” (priority 2008, dated 2013).

The target of this assay is T1, AMPA (GluR1) receptor (Homo sapiens, UniProt P42261).
T1 construct: expressed in transfected cells; host or cells: HEK cells (HEK.GluR1(i)), kept under hygromycin selection
As to the kind of experiment: Ca2+ influx fluorescence assay (FLEXstation, Fluo-3). To be noted: HEK.GluR1(i) cells, glutamate +/- test compound, Ca2+ influx measured with fluo3; read-out: EC50, positive modulation of the AMPA receptor. It counts as cell-based. The text has this: The compounds in this invention may be tested using a biological assay which measures Ca^2+ influx mediated through positive modulation of the AMPA (GluR1) receptor using standard techniques in the art such as, but not limited to, a FLEXstation (manufactured by Molecular Devices, Sunnyvale, Calif.). An optical readout using fluorescent probes is employed to measure ion channel dependent changes in intracellular ion concentration or membrane potential. The assay utilises the Ca^2+ conductance of functional homomeric GluR1(i) AMPA receptors to generate glutamate-dependent Ca^2+ responses. Influx of Ca^2+ through the ion channel is measured indirectly through an increase in intracellular Ca^2+ levels using the calcium sensitive dye such as, but not limited to, Fluo-3 (Molecular Devices, Sunnyvale, Calif.) in FLEXstation. A positive AMPA receptor modulator, in the presence of glutamate, will result in an influx of Ca^2+ through the ion channel which can be measured indirectly through an increase in intracellular Ca2+ levels using the calcium sensitive dye Fluo-3 in FLEXstation.
HEK.GluR1(i) cells were maintained in DMEM supplemented with 10% fetaclone II, 1% non-essential amino acids and 150 μg/mL hygromycin, at 37° C./5% CO2. […]

T1 sequence (P42261 19-906 isoform P42261-2 limits assumed, species assumed): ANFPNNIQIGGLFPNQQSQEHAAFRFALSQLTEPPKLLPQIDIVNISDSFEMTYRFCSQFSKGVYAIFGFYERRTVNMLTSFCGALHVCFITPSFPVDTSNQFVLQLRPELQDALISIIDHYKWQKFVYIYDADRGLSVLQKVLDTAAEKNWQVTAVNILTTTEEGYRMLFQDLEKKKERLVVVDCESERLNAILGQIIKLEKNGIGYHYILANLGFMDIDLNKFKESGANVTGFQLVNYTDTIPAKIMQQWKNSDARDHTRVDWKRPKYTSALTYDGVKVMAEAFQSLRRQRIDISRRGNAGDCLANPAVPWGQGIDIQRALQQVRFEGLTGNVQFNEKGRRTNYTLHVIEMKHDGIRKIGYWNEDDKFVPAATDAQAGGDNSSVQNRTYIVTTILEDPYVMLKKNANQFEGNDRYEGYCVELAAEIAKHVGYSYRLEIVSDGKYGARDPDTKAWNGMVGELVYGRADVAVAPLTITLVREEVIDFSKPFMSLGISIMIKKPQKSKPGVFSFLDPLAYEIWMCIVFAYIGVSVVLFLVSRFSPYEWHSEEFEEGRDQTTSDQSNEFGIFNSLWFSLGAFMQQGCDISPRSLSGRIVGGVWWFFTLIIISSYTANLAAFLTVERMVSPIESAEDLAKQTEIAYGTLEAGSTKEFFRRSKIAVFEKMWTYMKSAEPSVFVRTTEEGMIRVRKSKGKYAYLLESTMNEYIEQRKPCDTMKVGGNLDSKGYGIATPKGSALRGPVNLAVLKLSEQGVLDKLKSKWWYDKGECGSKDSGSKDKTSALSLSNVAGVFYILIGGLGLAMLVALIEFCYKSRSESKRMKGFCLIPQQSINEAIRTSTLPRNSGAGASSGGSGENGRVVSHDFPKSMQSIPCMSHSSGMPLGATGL

Usually EC50 stands for the concentration needed to bring the measured effect to its halfway point. In the case of `O=S(=O)(N[C@H]1Cc2ccc(Cn3cc(CO)c(C(F)(F)F)n3)cc2C1)c1ccco1` [Example 18, (S)—N-(5-((4-(hydroxymethyl)-3-(trifluoromethyl)-1H-pyrazol-1-yl)methyl)-2,3-dihydro-1H-inden-2-yl)furan-2-sulfonamide], the EC50 stood at 2500 nM.
